Measurements: patent US12606556B2, “TYK-2 inhibitor” (BEIGENE, LTD., priority 2020, dated 2026)

Experiments:
[1] = biological target: T1, TYK2-JH2 (aa 575-869, in-house) protein (Homo sapiens, UniProt P29597); assay: TYK2-JH2 biochemical assay (HTRF, blocking of TYK2-JH2 protein with its probe); type: binding; settings: for IC50: HTRF, 0.2 nM recombinant TYK2-JH2, Probe 1; for Biochemical assay Selectivity fold (TYK2/JAK1): TYK2-JH2 vs JAK1-JH2 biochemical IC50
T1 construct: TYK2-JH2 (aa 575-869, in-house) protein; made in house
T1 sequence (P29597 575-869): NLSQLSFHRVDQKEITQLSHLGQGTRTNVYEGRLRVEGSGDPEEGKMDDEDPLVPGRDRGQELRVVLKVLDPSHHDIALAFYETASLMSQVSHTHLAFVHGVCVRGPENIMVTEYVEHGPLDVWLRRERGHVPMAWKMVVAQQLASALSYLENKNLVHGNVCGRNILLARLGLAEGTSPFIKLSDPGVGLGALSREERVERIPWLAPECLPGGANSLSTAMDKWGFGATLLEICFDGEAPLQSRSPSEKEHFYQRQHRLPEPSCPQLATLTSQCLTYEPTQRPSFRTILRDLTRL
Procedure: Assay A: TYK2-JH2 Biochemical Assay
Compounds disclosed herein were tested for blocking of TYK2-JH2 (aa 575-869, in-house) protein with its probe in an assay based on Homogeneous Time Resolved Fluorescence.
Compound dilution is done according to the following protocol: (1) Prepare 500× compounds solution in DMSO from 500 uM by 5-fold dilution, total 10 doses were included; (2) Prepare 10× compounds solution in an assay buffer containing 20 mM HEPES, pH 7.5, 10 mM MgCl2, 0.005% BSA, 2 mM DTT, 0.015% Brij-35 by transferring 1 μl serial 500× stock solution into 49 μl assay buffer. 4 μl of 0.2 nM recombinant TYK2-JH2 protein was pre-incubated with 1 μl of 10×serial dilution of compounds at room temperature for 0.5 hour. Then 5 μl of 10 nM in-house Probe 1 (6-((3,5-dimethylphenyl)amino)-8-((4,26-dioxo-30-((3aS,4S,6aR)-2-oxohexahydro-1H-thieno[3,4-d]imidazol-4-yl)-7,10,13,16,19,22-hexaoxa-3,25-diazatriacontyl)amino)imidazo[1,2-b]pyridazine-3-carboxamide, KD=10 nM), 5 μl Mab Anti-6His Tb cryptate Gold (Cat: 61HI2TLB, Cisbio Bioassays) and Streptavidin-XL665(Cat: 610SAXLB, Cisobio Bioassays) mixture were added to plate and further incubated at room temperature for 1 hour. The HTRF signals (ex337 nm, em620 nm/665 nm) were read on BMG PHERAstar FS instrument. The inhibition percentage of TYK2 interaction with its probe in presence of increasing concentrations of compounds was calculated based on the ratio of fluorescence at […]. The IC50 for each compound was derived from fitting the data to the four-parameter logistic equation by Dotmatics.

[2] = biological target: T2, JAK1-JH2 protein (aa 561-860, in-house) (Homo sapiens, UniProt P23458); assay: JAK1-JH2 biochemical assay (HTRF, blocking of JAK1-JH2 protein with its probe); type: binding; settings: 1.17 nM recombinant JAK1-JH2, Probe 2
T2 construct: JAK1-JH2 protein (aa 561-860, in-house); made in house
T2 sequence (P23458 561-860): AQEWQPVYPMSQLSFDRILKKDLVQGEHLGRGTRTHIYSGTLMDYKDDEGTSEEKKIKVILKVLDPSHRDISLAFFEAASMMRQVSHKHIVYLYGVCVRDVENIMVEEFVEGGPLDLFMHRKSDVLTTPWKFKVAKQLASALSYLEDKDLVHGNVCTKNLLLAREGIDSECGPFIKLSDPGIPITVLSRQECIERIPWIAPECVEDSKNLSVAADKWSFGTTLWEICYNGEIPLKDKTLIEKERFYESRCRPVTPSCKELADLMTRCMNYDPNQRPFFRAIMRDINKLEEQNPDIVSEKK
Procedure: Assay B: JAK1-JH2 Biochemical Assay
Compounds disclosed herein were tested for blocking of JAK1-JH2 protein (aa 561-860, in-house) with its probe in an assay based on Homogeneous Time Resolved Fluorescence. Compound dilution is done according to the following protocol: (1) Prepare 500× compounds solution in DMSO from 500 uM by 5-fold dilution, total 10 doses were included; (2) Prepare 10× compounds solution in an assay buffer containing 20 mM HEPES, pH 7.5, 10 mM MgCl2, 0.005% BSA, 2 mM DTT, 0.015% Brij-35 by transferring 1 μl serial 500× stock solution into 49 μl assay buffer. 4 μL of 1.17 nM recombinant JAK1-JH2 protein was pre-incubated with 1 μl of 10×serial dilution of compounds at room temperature for 0.5 hour. […] The HTRF signals (ex337 nm, em620 nm/665 nm) were read on BMG PHERAstar FS instrument. The inhibition percentage of JAK1 interaction with its probe in presence of increasing concentrations of compounds was calculated based on the ratio of fluorescence at 615 nm to that at 665 nm. The IC50 for each compound was derived from fitting the data to the four-parameter logistic equation by Dotmatics.

[3] = system: JAK1/p-STAT3(Tyr705) activated by IL-6 in TF-1 cell line; assay: IL-6-JAK1/p-STAT3(Tyr705) inhibition cellular assay; type: cell-based; settings: Homo sapiens, 0.5 h; TF-1 cells, IL-6 50 ng/ml, 30 min; read-out: Cellular assay pSTAT3/IL-6 IC50
Source text: Assay D: IL-6-JAK1/p-STAT3(Tyr705) Inhibition IC50 Cellular Assay
To evaluate the inhibition effect of compounds disclosed herein on JAK1/p-STAT3(Tyr705) activated by IL-6 in TF-1 cell line, TF-1 cells were collected and washed 3 times by DPBS and resuspended in RPMI-1640 (phenol red free, Gibco, Cat #11835-030) with 0.1% FBS (Gibco, Cat #10099, Lot #1891605), without GM-CSF(R&D systems,Cat #215-GM-050), starved overnight. Cells were collected and resuspended in 1640 medium (phenol red free, Gibco, Cat #11835-030) with 0.1% BSA, and 12.5 μl/10×10^4/well cell suspension were seeded to the 96-well plate (Corning, Cat #3799). Then cells were treated with compounds diluted in 0.2% DMSO 1640 medium, at 37° C., 1 h. Dilution is done according to the following protocol: (1) make 500× compounds solution in DMSO from 5 mM by 4-fold dilution, total 8 doses were included; (3) make 2× compounds solution in assay medium by transferring 0.5 μl serial 500× stock solution into 125 μl assay medium; (4) 15 μl of 2× solution is added to cells and incubate at 37° C. for 1 h, the final compound conc. is 10000,2500,625,156.25,39,9.8,2.4 and 0.61 nM, respectively. After 1 h, cells were treated with 2.5 μl medium containing IL-6 at 37° C. (R&D systems, Cat #206-IL-010, final conc.50 ng/ml), 30 min. Following cells were lysed with 10 μl lysis buffer at RT, shaking on shaker for 1 h. 16 μL of cell lysate were transferred to a PE 384-well HTRF detection plate, and 4 μL of pre-mixed HTRF antibodies were added to each well. Covered the plate with a plate sealer, span 1000 rpm for 1 min, mix, Incubated overnight at room temperature. Read on BMG PheraStar with HTRF protocol (337 nm-665 nm-620 nm). IC 50 values were calculated by fitting dependent data to the four-parameter logistic model using dotmatics software. The assay was performed by using HTRF Phospho-STAT3(Tyr705) Cellular Assay Kit (Cisbio, Cat #62AT3PEG).

[4] = system: JAK2, TYK2/p-STAT4 (Tyr693) activated by IL-12 in NK-92 cell line; assay: IL-12-JAK2, TYK2/p-STAT4 (Tyr693) inhibition cellular assay; type: cell-based; settings: for IC50: NK92, 0.5 h, NK-92 cells, IL-12 40 ng/ml, 30 min, read-out: Cellular assay pSTAT4/IL-12 IC50; for Cellular assay Selectivity fold (TYK2/JAK1): pSTAT4/IL-12 vs pSTAT3/IL-6 cellular IC50
Source text: Assay C: IL-12-JAK2, TYK2/p-STAT4 (Tyr693) Inhibition IC50 Cellular Assay
To evaluate the inhibition effect of compounds disclosed herein on JAK2, TYK2/p-STAT4 (Tyr693) activated by IL-12 in NK-92 cell line, NK-92 cells were collected and washed 3 times by DPBS and resuspended in MEM-α(GIBCO,Cat #12561056) with 10% FBS (Gibco, Cat #10099, Lot #1891605), without IL-2 (R&D systems,Cat #202-IL), starved overnight. Cells were collected and resuspended in 1640 medium (phenol red free, Gibco, Cat #11835-030) with 0.1% BSA, and 12.5 μl/5×10^4/well cell suspension were seeded to the 96-well plate (Corning, Cat #3799). Then cells were treated with compounds diluted in 0.2% DMSO 1640 medium, at 37° C., 1 h. Dilution is done according to the following protocol: (1) make 500× compounds solution in DMSO from 5 mM by 4-fold dilution, total 8 doses were included; (3) make 2× compounds solution in assay medium by transferring 0.5 μl serial 500× stock solution into 125 μl assay medium; (4) 15 μl of 2× serial solution is added to cells and incubate at 37° C. for 1 h, the final compound conc. is 10000,2500,625,156.25,39,9.8,2.4 and 0.61 nM, respectively. After 1 h, cells were treated with 2.5 μl medium containing IL-12 at 37° C. (R&D systems, Cat #219-IL-005, final conc.40 ng/ml), 30 min. Following cells were lysed with 7.5 μl lysis buffer at RT, shaking on shaker for 1 h. 10 μL of cell lysate were transferred to a PE 384-well Proxiplate detection plate, and 5 μL of pre-mixed Alphascreen beads were added to each well. Covered the plate with a plate sealer, span 1000 rpm for 1 min, mix, Incubated overnight at room temperature. Read on BMG PheraStar with Alphascreen protocol. IC 50 values were calculated by fitting dependent data to the four-parameter logistic model using dotmatics software. The assay was performed by using AlphaLISA SureFire Ultra p-STAT4 (Tyr693) Assay Kit—High Volume (PE, Cat #ALSU-PST4-A-HV).

Structure (SMILES)	IC50 [1]	Biochemical assay Selectivity fold (TYK2/JAK1) [1]	IC50 [2]	IC50 [3]	IC50 [4]	Cellular assay Selectivity fold (TYK2/JAK1) [4]
CNC(=O)c1nnc(NC(=O)C2CC2)cc1Nc1nc2ccccc2o1 [Example A1, 4-(benzo[d]oxazol-2-ylamino)-6-(cyclopropanecarboxamido)-N-methylpyridazine-3-carboxamide]	456 nM	>22 fold	> 10000 nM	–	–	–
CNC(=O)c1nnc(NC(=O)C2CC2)cc1Nc1nc2ccccc2n1C [Example A2, 6-(cyclopropanecarboxamido)-N-methyl-4-((1-methyl-1H-benzo[d]imidazol-2-yl)amino) pyridazine-3-carboxamide]	34 nM	5 fold	174 nM	–	–	–
CNC(=O)c1nnc(NC(=O)C2CC2)cc1Nc1nc2ccccc2[nH]1 [Example A3, 4-((1H-benzo [d]imidazol-2-yl)amino)-6-(cyclopropane-carboxamido)-N-methyl-pyridazine-3-carboxamide]	1.4 nM	2.6 fold	3.7 nM	–	–	–
CNC(=O)c1nnc(NC(=O)C2CC2)cc1Nc1nc2ccccn2n1 [Example A4, 4-([1,2,4]triazolo[1,5-a]pyridin-2-ylamino)-6-(cyclopropane-carboxamido)-N-methyl-pyridazine-3-carboxamide]	0.16 nM	8 fold	1.3 nM	2410 nM	104 nM	23 fold
CNC(=O)c1nnc(NC(=O)C2CC2)cc1Nc1nc2ccc(P(C)(C)=O)cn2n1 [Example A5, 6-(cyclopropanecarboxamido)-4-((6-(dimethylphosphoryl)-[1,2,4]triazolo[1,5-a]pyridin-2-yl)amino)-N-methyl-pyridazine-3-carboxamide]	0.56 nM	23 fold	13 nM	> 10000 nM	> 10000 nM	–
CNC(=O)c1nnc(NC(=O)C2CC2)cc1Nc1nc2cc(OC)c(N3CCC3)cn2n1 [Example B1, 4-((6-(azetidin-1-yl)-7-methoxy-[1,2,4]triazolo[1,5-a]pyridin-2-yl)amino)-6-(cyclopropanecarboxamido)-N-methylpyridazine-3-carboxamide]	0.936 nM	2 fold	2.03 nM	> 10000 nM	3530 nM	>3 fold
CNC(=O)c1nnc(NC(=O)C2CC2)cc1Nc1nc2ccc(OC3CN(C(=O)OC(C)(C)C)C3)cn2n1 [Example C1, tert-butyl 3-((2-((6-(cyclopropanecarboxamido)-3-(methylcarbamoyl)pyridazin-4-yl)amino)-[1,2,4]triazolo[1,5-a]pyridin-6-yl)oxy)azetidine-1-carboxylate]	0.1 nM	13 fold	1.3 nM	–	–	–
CNC(=O)c1nnc(NC(=O)C2CC2)cc1Nc1nc2ccc(OC3CNC3)cn2n1 [Example C2, 4-((6-(azetidin-3-yloxy)-[1,2,4]triazolo[1,5-a]pyridin-2-yl)amino)-6-(cyclopropanecarboxamido)-N-methylpyridazine-3-carboxamide]	0.14 nM	9 fold	1.2 nM	–	–	–
CNC(=O)c1nnc(NC(=O)C2CC2)cc1Nc1nc2ccc(OC3CN(S(C)(=O)=O)C3)cn2n1 [Example C3, 6-(cyclopropanecarboxamido)-N-methyl-4-((6-((1-(methylsulfonyl)azetidin-3-yl)oxy)-[1,2,4]triazolo[1,5-a]pyridin-2-yl)amino)pyridazine-3-carboxamide]	0.08 nM	15 fold	1.2 nM	> 10000 nM	68.8 nM	>145 fold
CNC(=O)c1nnc(NC(=O)C2CC2)cc1Nc1nc2ccc(N3CCC(N4CCC4)CC3)cn2n1 [Example E11, 4-((6-(4-(azetidin-1-yl)piperidin-1-yl)-[1,2,4]triazolo[1,5-a]pyridin-2-yl)amino)-6-(cyclopropanecarbox-amido)-N-methyl-pyridazine-3-carboxamide]	0.18 nM	32 fold	5.8 nM	–	–	–
